Patent publication US7763652B2, “Prostaglandin derivatives” (Taisho Pharmaceutical Co., Ltd., priority 2002, dated 2010)

Test system: male cynomolgus monkeys
Test: Sleep-inducing test by cisternal administration
Type: in vivo
Conditions: cisternal infusion; for Sleep time: sleep time over three hours after administration, four male cynomolgus monkeys; for Number of slept animals: three hours after administration
Protocol: Sleep-Inducing Test by Cisternal Administration
Four male cynomolgus monkeys weighing 2.0-3.5 kg were individually placed in cages. The behaviors of the respective animals were recorded by videotape from one hour before drug administration to three hours after drug administration. Compound 16 was dissolved in physiological saline solution and sterilized using a Minipore filter. The drug was cisternally infused into the monkeys anesthetized with isoflurane inhalation. The dose was 10 μg/0.1 ml per monkey and 100 μg/0.1 ml per monkey. The same dose of the vehicle was infused cisternally to the control group. The test schedule was carried out according to the following protocol.
Week 1: Group treated with vehicle
Week 2: Group treated with 10 μg of Compound 16/monkey
Week 3: Group treated with 100 μg of Compound 16/monkey
The sleep times at three hours after administration were determined by playing back the recorded videotape and measuring the times (second) during which the animals relaxed with their both eyes closed, which are shown in Table 2.

O=C(O)C#CCCSCC1C(Cl)CC(O)C1C#CC(O)C1CCCCC1 (stereo not drawn) [Compound 16, 9-Deoxy-9β-chloro-16,17,18,19,20-pentanor-15-cyclohexyl-2,2,3,3,13,14-hexadehydro-6-thia-PGF1α]
Sleep time (10 μg/0.1 ml per monkey): 293 s | Number of slept animals (10 μg/0.1 ml per monkey): 3/4 | Sleep time (100 μg/0.1 ml per monkey): 1734 s | Number of slept animals (100 μg/0.1 ml per monkey): 4/4
